Assay results taken from article PMC10017042 (Science Advances, 2023).
Like-named read-outs stand apart in the source and are kept apart here. Values belong to the compound of their own block, whether it stands above or below them.

Legend:
HIV-1 = conditions: cited from earlier work
[1] = Plasma drug concentrations (pyrimethamine UPLC-MS/MS, VPA assay, unbound dolutegravir) in trial participants; assay type: in vivo, human; conditions: human, plasma, 6 hours, read-out: Median unbound dolutegravir concentration
Description: Self-reported adherence was assessed at each study visit, and empty pill strips were collected after the 2-week intervention phase. […] A gradient (0.3 ml/min) with two eluents was used (A: 2 mM ammonium acetate + 0.1% formic acid in water; B: 2 mM ammonium acetate + 0.1% formic acid in methanol). […] For measurement validation, we performed linearity, correctness, LOD and lower LOQ, repeatability, reproducibility, measurement uncertainty, robustness, and carryover. […] Unbound dolutegravir plasma concentrations were quantified with a validated UPLC-MS/MS bioquantification method as previously described ([61]).

Compound: O=C(CCCCCCC(=O)Nc1ccccc1)NO [vorinostat]
Mean fold increase in CA US HIV-1 RNA (HIV-1; at time points during vorinostat): 2.6 fold | HIV-1 reactivation (HIV-1; combined with a T cell-inducing HIV-1 vaccine in PLWH who initiated cART during acute HIV-1): No reactivation | Fold change in CA US HIV-1 RNA (HIV-1; vorinostat treatment in postmenopausal women): 1.5 fold

concentration at 6 h ([1]; those with pyrimethamine exposure): 11.7 ng/mL | concentration at 6 h ([1]; those without pyrimethamine exposure): 10.1 ng/mL
Compound: C[C@@H]1CCO[C@H]2Cn3cc(C(=O)NCc4ccc(F)cc4F)c(=O)c(O)c3C(=O)N12 [dolutegravir]

Compound: C/C=C1\NC(=O)[C@H]2CSSCC/C=C/[C@H](CC(=O)N[C@H](C(C)C)C(=O)N2)OC(=O)[C@H](C(C)C)NC1=O [romidepsin]
Effect on HIV-1 transcription (HIV-1; additional pharmacodynamics studies): no significant effect | Increase in CA US HIV-1 RNA (HIV-1; initial studies): approximately threefold
